Data as given in ChEMBL document CHEMBL2074246, “Distinct groups of multidrug resistance modulating agents are distinguished by competition of P-glycoprotein-specific antibodies” (Biochem Biophys Res Commun, 2004).
*1 amine or outer side, *2 acyl side, *3 side chain or, on linkers, in order; H or OH if unused. Where a SMILES comes first, the peptide text is derived from it. Bridges are numbered along the chain shown (N, C = ends). Roman numbers before positions name the chains, in order. [ ]: non-standard residue; d: D form. Actinocin(9to1) = Cc1c2oc3c(C)ccc(C(=O)[*:1])c3nc-2c(C(=O)[*:2])c(N)c1=O; NMeV = CN[C@H](C(=O)O)C(C)C; Sar = CNCC(=O)O

What was measured:
Assay type in all cases: functional, cell-based
[1] = target: T1, ATP-dependent translocase ABCB1 (Homo sapiens, UniProt P08183); assay: TP_TRANSPORTER: increase in Calcein-AM intracellular accumulation (Calcein-AM: 0.5 uM, m-Amsacrine: 5 uM) in MDR1-expressing NIH-3T3 cells; details: mouse, nih3t3, 5 µM
[2] = target: T1, ATP-dependent translocase ABCB1; assay: TP_TRANSPORTER: increase in Calcein-AM intracellular accumulation (Calcein-AM: 0.5 uM, Quinine: 20 uM) in MDR1-expressing NIH-3T3 cells; details: mouse, nih3t3, 20 µM
[3] = target: T1, ATP-dependent translocase ABCB1; assay: TP_TRANSPORTER: increase in Calcein-AM intracellular accumulation (Calcein-AM: 0.5 uM, Actinomycin D: 40 uM) in MDR1-expressing NIH-3T3 cells; details: mouse, nih3t3, 40 µM
[4] = target: T1, ATP-dependent translocase ABCB1; assay: TP_TRANSPORTER: increase in Calcein-AM intracellular accumulation (Calcein-AM: 0.5 uM, Trimipramine: 20 uM) in MDR1-expressing NIH-3T3 cells; details: mouse, nih3t3, 20 µM
[5] = target: T1, ATP-dependent translocase ABCB1; assay: TP_TRANSPORTER: increase in Calcein-AM intracellular accumulation (Calcein-AM: 0.5 uM, Tetracaine: 320 uM) in MDR1-expressing NIH-3T3 cells; details: mouse, nih3t3, 320 µM
[6] = target: T1, ATP-dependent translocase ABCB1; assay: TP_TRANSPORTER: increase in Calcein-AM intracellular accumulation (Calcein-AM: 0.5 uM, Rapamycin: 20 uM) in MDR1-expressing NIH-3T3 cells; details: mouse, nih3t3, 20 µM
[7] = target: T1, ATP-dependent translocase ABCB1; assay: TP_TRANSPORTER: increase in Calcein-AM intracellular accumulation (Calcein-AM: 0.5 uM, Ivermectin: 20 uM) in MDR1-expressing NIH-3T3 cells; details: mouse, nih3t3, 20 µM
[8] = target: T1, ATP-dependent translocase ABCB1; assay: TP_TRANSPORTER: increase in Calcein-AM intracellular accumulation (Calcein-AM: 0.5 uM, Mibefradil: 18 uM) in MDR1-expressing NIH-3T3 cells; details: mouse, nih3t3, 18 µM
[9] = target: T1, ATP-dependent translocase ABCB1; assay: TP_TRANSPORTER: increase in Calcein-AM intracellular accumulation (Calcein-AM: 0.5 uM, Benzocaine: 20 uM) in MDR1-expressing NIH-3T3 cells; details: mouse, nih3t3, 20 µM
[10] = target: T1, ATP-dependent translocase ABCB1; assay: TP_TRANSPORTER: increase in Calcein-AM intracellular accumulation (Calcein-AM: 0.5 uM, Progesterone: 10 uM) in MDR1-expressing NIH-3T3 cells; details: mouse, nih3t3, 10 µM
[11] = target: T1, ATP-dependent translocase ABCB1; assay: TP_TRANSPORTER: increase in Calcein-AM intracellular accumulation (Calcein-AM: 0.5 uM, Desipramine: 20 uM) in MDR1-expressing NIH-3T3 cells; details: mouse, nih3t3, 20 µM
[12] = target: T1, ATP-dependent translocase ABCB1; assay: TP_TRANSPORTER: increase in Calcein-AM intracellular accumulation (Calcein-AM: 0.5uM, Nifedipine:125uM) in MDR1-expressing NIH-3T3 cells; details: mouse, nih3t3, 125 µM
[13] = target: T1, ATP-dependent translocase ABCB1; assay: TP_TRANSPORTER: increase in Calcein-AM intracellular accumulation (Calcein-AM: 0.5 uM, Haloperidol: 80 uM) in MDR1-expressing NIH-3T3 cells; details: mouse, nih3t3, 80 µM
[14] = target: T1, ATP-dependent translocase ABCB1; assay: TP_TRANSPORTER: increase in Calcein-AM intracellular accumulation (Calcein-AM: 0.5 uM, Galangin: 50 uM) in MDR1-expressing NIH-3T3 cells; details: mouse, nih3t3, 50 µM
[15] = target: T1, ATP-dependent translocase ABCB1; assay: TP_TRANSPORTER: increase in Calcein-AM intracellular accumulation (Calcein-AM: 0.5 uM, o-Amsacrine: 5 uM) in MDR1-expressing NIH-3T3 cells; details: mouse, nih3t3, 5 µM
[16] = target: T1, ATP-dependent translocase ABCB1; assay: TP_TRANSPORTER: increase in Calcein-AM intracellular accumulation (Calcein-AM: 0.5 uM, Imipramine: 20 uM) in MDR1-expressing NIH-3T3 cells; details: mouse, nih3t3, 20 µM
[17] = target: T1, ATP-dependent translocase ABCB1; assay: TP_TRANSPORTER: increase in Calcein-AM intracellular accumulation (Calcein-AM: 0.5 uM, Reserpine: 40 uM) in MDR1-expressing NIH-3T3 cells; details: mouse, nih3t3, 40 µM
[18] = target: T1, ATP-dependent translocase ABCB1; assay: TP_TRANSPORTER: increase in Calcein-AM intracellular accumulation (Calcein-AM: 0.5 uM, Propranolol: 500 uM) in MDR1-expressing NIH-3T3 cells; details: mouse, nih3t3, 500 µM
[19] = target: T1, ATP-dependent translocase ABCB1; assay: TP_TRANSPORTER: increase in Calcein-AM intracellular accumulation (Calcein-AM: 0.5uM, Nonidet P-40:6x10-4a%) in MDR1-expressing NIH-3T3 cells; details: mouse, nih3t3
[20] = target: T1, ATP-dependent translocase ABCB1; assay: TP_TRANSPORTER: increase in Calcein-AM intracellular accumulation (Calcein-AM: 0.5 uM, Genistein: 40 uM) in MDR1-expressing NIH-3T3 cells; details: mouse, nih3t3, 40 µM
[21] = target: T1, ATP-dependent translocase ABCB1; assay: TP_TRANSPORTER: increase in Calcein-AM intracellular accumulation (Calcein-AM: 0.5 uM, Prednisone: 200 uM) in MDR1-expressing NIH-3T3 cells; details: mouse, nih3t3, 200 µM
[22] = target: T1, ATP-dependent translocase ABCB1; assay: TP_TRANSPORTER: increase in Calcein-AM intracellular accumulation (Calcein-AM: 0.5 uM, PSC-833: 8 uM) in MDR1-expressing NIH-3T3 cells; details: mouse, nih3t3, 8 µM

T1 sequence (P08183 whole entry): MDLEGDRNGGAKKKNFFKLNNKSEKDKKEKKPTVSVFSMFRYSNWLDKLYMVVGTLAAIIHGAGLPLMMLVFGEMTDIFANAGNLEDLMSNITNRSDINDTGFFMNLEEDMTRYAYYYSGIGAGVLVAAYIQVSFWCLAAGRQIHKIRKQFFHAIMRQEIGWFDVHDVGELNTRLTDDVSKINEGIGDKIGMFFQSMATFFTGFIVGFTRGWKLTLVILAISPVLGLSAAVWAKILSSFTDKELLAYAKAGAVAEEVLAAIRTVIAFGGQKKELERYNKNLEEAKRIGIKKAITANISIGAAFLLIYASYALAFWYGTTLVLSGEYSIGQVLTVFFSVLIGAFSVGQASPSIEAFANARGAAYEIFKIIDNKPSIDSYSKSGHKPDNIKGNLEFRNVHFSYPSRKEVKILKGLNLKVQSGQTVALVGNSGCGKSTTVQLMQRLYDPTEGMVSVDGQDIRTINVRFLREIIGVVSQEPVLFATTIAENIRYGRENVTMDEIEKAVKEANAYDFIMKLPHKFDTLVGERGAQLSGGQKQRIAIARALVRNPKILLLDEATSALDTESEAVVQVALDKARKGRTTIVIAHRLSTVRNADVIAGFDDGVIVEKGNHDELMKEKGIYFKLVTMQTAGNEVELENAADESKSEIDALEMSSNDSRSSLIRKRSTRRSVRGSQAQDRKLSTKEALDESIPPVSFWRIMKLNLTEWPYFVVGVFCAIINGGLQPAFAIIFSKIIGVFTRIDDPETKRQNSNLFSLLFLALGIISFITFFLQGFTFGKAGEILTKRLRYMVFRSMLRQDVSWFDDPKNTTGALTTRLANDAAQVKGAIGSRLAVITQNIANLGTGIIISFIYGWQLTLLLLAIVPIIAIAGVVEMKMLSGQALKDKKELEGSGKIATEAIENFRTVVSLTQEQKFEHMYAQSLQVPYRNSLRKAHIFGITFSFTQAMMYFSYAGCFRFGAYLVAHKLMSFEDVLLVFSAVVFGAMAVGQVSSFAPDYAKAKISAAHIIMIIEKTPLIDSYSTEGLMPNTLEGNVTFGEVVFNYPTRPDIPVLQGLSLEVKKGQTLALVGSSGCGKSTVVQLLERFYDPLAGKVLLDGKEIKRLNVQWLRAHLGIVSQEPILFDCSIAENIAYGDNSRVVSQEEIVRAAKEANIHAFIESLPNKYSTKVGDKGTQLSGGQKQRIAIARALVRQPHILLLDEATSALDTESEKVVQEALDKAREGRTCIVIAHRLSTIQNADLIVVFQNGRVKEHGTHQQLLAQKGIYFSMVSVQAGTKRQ

`COc1cc(NS(C)(=O)=O)ccc1Nc1c2ccccc2nc2ccccc12` [AMSACRINE] was tested. Which Activity [1] did it give?
The Activity was “inhibitor [+]”.

How did the Activity [2] turn out when `C=C[C@H]1C[N@@]2CC[C@H]1C[C@H]2[C@H](O)c1ccnc2ccc(OC)cc12` [QUININE] was run?
The Activity was “inhibitor [+]”.

`Cc1c2oc3c(C)ccc(C(=O)N[C@@H]4C(=O)N[C@H](C(C)C)C(=O)N5CCC[C@H]5C(=O)N(C)CC(=O)N(C)[C@@H](C(C)C)C(=O)O[C@@H]4C)c3nc-2c(C(=O)N[C@@H]2C(=O)N[C@H](C(C)C)C(=O)N3CCC[C@H]3C(=O)N(C)CC(=O)N(C)[C@@H](C(C)C)C(=O)O[C@@H]2C)c(N)c1=O` [DACTINOMYCIN] (I: T[dV]P[Sar][NMeV] / II: T[dV]P[Sar][NMeV]; ester I:1-I:C, II:1-II:C; linker I:N-II:N via Actinocin(9to1)) was tested. Which Activity [3] did it give?
The Activity was “inhibitor [+]”.

With `CC(CN(C)C)CN1c2ccccc2CCc2ccccc21` (configuration not stated) [TRIMIPRAMINE] as the compound, how does the Activity [4] read?
Its Activity is “inhibitor [+]”.

Which Activity [5] does the source give for `CCCCNc1ccc(C(=O)OCCN(C)C)cc1` [TETRACAINE] here?
Its Activity is “inhibitor [+]”.

Which Activity [6] does the source give for `CO[C@H]1C[C@@H]2CC[C@@H](C)[C@@](O)(O2)C(=O)C(=O)N2CCCC[C@H]2C(=O)O[C@H]([C@H](C)C[C@@H]2CC[C@@H](O)[C@H](OC)C2)CC(=O)[C@H](C)/C=C(\C)[C@@H](O)[C@@H](OC)C(=O)[C@H](C)C[C@H](C)/C=C/C=C/C=C/1C` [SIROLIMUS] here?
Its Activity is “inhibitor [+]”.

With IVERMECTIN as the compound, how does the Activity [7] read?
The Activity was “inhibitor [+]”.

How did the Activity [8] turn out when `COCC(=O)O[C@]1(CCN(C)CCCc2nc3ccccc3[nH]2)CCc2cc(F)ccc2[C@@H]1C(C)C` [MIBEFRADIL] was run?
Its Activity is “inhibitor [+]”.

Which Activity [9] does the source give for `CCOC(=O)c1ccc(N)cc1` [BENZOCAINE] here?
The Activity was “inhibitor [+]”.

How did the Activity [10] turn out when `CC(=O)[C@H]1CC[C@H]2[C@@H]3CCC4=CC(=O)CC[C@]4(C)[C@H]3CC[C@]12C` [PROGESTERONE] was run?
The Activity was “inhibitor [+]”.

With `CNCCCN1c2ccccc2CCc2ccccc21` [DESIPRAMINE] as the compound, how does the Activity [11] read?
The Activity was “inhibitor [+]”.

Which Activity [12] does the source give for `COC(=O)C1=C(C)NC(C)=C(C(=O)OC)C1c1ccccc1[N+](=O)[O-]` [NIFEDIPINE] here?
The Activity was “inhibitor [+]”.

For `O=C(CCCN1CCC(O)(c2ccc(Cl)cc2)CC1)c1ccc(F)cc1` [HALOPERIDOL], which Activity [13] is on record?
The Activity was “inhibitor [+]”.

`O=c1c(O)c(-c2ccccc2)oc2cc(O)cc(O)c12` [GALANGIN] was tested. Which Activity [14] did it give?
Its Activity is “inhibitor [+]”.

`COc1cc(Nc2c3ccccc3nc3ccccc23)ccc1NS(C)(=O)=O` [o-Amsacrine] was tested. Which Activity [15] did it give?
The Activity was “inhibitor [+]”.

For `CN(C)CCCN1c2ccccc2CCc2ccccc21` [IMIPRAMINE], which Activity [16] is on record?
Its Activity is “inhibitor [+]”.

For `COC(=O)[C@H]1[C@H]2C[C@@H]3c4[nH]c5cc(OC)ccc5c4CCN3C[C@H]2C[C@@H](OC(=O)c2cc(OC)c(OC)c(OC)c2)[C@@H]1OC` [RESERPINE], which Activity [17] is on record?
Its Activity is “inhibitor [+]”.

How did the Activity [18] turn out when `CC(C)NCC(O)COc1cccc2ccccc12` (configuration not stated) [PROPRANOLOL] was run?
The Activity was “inhibitor [+]”.

For `CC(C)(C)CC(C)(C)c1ccc(OCCOCCO)cc1`, which Activity [19] is on record?
The Activity was “inhibitor [+]”.

With `O=c1c(-c2ccc(O)cc2)coc2cc(O)cc(O)c12` [GENISTEIN] as the compound, how does the Activity [20] read?
Its Activity is “inhibitor [+]”.

`C[C@]12C=CC(=O)C=C1CC[C@@H]1[C@@H]2C(=O)C[C@@]2(C)[C@H]1CC[C@]2(O)C(=O)CO` [PREDNISONE] was tested. Which Activity [21] did it give?
Its Activity is “inhibitor [+]”.

For `C/C=C/C[C@@H](C)C(=O)[C@H]1C(=O)N[C@@H](C(C)C)C(=O)N(C)CC(=O)N(C)[C@@H](CC(C)C)C(=O)N[C@@H](C(C)C)C(=O)N(C)[C@@H](CC(C)C)C(=O)N[C@@H](C)C(=O)N[C@H](C)C(=O)N(C)[C@@H](CC(C)C)C(=O)N(C)[C@@H](CC(C)C)C(=O)N(C)[C@@H](C(C)C)C(=O)N1C` [VALSPODAR], which Activity [22] is on record?
Its Activity is “inhibitor [+]”.
